31 compounds from US20240083857A1, “2-Methyl-Quinazolines” (Bayer Pharma Aktiengesellschaft, priority 2017, published 2024) can be followed below.

Assay [1] concerns the target K-Ras^G12C : hSOS1 interaction (Homo sapiens, UniProt Q07889). Briefly: Biochemical assay 1: K-Ras^G12C interaction assay with hSOS1 (HTRF). The assay is classed as binding. The note with it: read-out: Assay 1 (KRAS-SOS Interaction) activity expressed as IC50. A general note: In TR-FRET formats the signal depends on donor and acceptor labels being close together.
Assay [2] deals with human SOS1 (loading of human K-Ras^G12C-GDP with fluorescent GTP-analog) (Homo sapiens, UniProt Q07889). Nature of the assay: Biochemical assay 3: K-Ras^G12C activation assay by hSOS1 (HTRF). The note with it: no GTP; for IC50: read-out: Assay 3 (KRAS-Activation by SOS no GTP) activity expressed as IC50.

With `COc1cc2nc(C)nc(N[C@H](C)c3ccc(-c4ccccc4CCN)s3)c2cc1OC` (stereo in doubt) [Example 357, N-[1-{5-[2-(2-aminoethyl)phenyl]thiophen-2-yl}ethyl]-6,7-dimethoxy-2-methylquinazolin-4-amine], the IC50 (commonly the concentration needed to halve the response being measured) in assay [1] came out at 51.2 nM; in assay [2], 69.2 nM.

For the compound `COc1cc2nc(C)nc(NC(C)c3ccc(-c4ccccc4[C@@H](C)NC(=O)OC(C)(C)C)s3)c2cc1OC` (stereo in doubt) [Example 358, tert-butyl {1-[2-(5-{1-[(6,7-dimethoxy-2-methylquinazolin-4-yl)amino]ethyl}thiophen-2-yl)phenyl]ethyl}carbamate], the results for the IC50 in assay [1] and in assay [2] were 1440 nM and 2450 nM, respectively.

Consider `COc1cc2nc(C)nc(NC(C)c3ccc(-c4ccccc4[C@@H](C)N)s3)c2cc1OC` (stereo in doubt) [Example 359, N-[1-(5-{2-[1-aminoethyl]phenyl}thiophen-2-yl)ethyl]-6,7-dimethoxy-2-methylquinazolin-4-amine], for which the IC50 in assay [1] was 234 nM; in assay [2], 299 nM.

Turning to `COc1cc2nc(C)nc(NC(C)c3ccc(-c4ccccc4[C@H](C)N)s3)c2cc1OC` (stereo in doubt) [Example 360, N-[1-(5-{2-[1-aminoethyl]phenyl}thiophen-2-yl)ethyl]-6,7-dimethoxy-2-methylquinazolin-4-amine], the IC50 in assay [1] was determined as 195 nM; in assay [2] it was 190 nM.

For the compound `COc1cc2nc(C)nc(NC(C)c3cccc4c3CCO4)c2cc1OC` (centres unmarked) [Example 22, N-[1-(2,3-dihydro-1-benzofuran-4-yl)ethyl]-6,7-dimethoxy-2-methylquinazolin-4-amine], the IC50 in assay [1] was determined as 177 nM; in assay [2], 589 nM.

`COc1cc2nc(C)nc(NC(C)c3ccc4c(c3)OCO4)c2cc1OC` (centres unmarked) [Example 23, N-[1-(1,3-benzodioxol-5-yl)ethyl]-6,7-dimethoxy-2-methylquinazolin-4-amine]: the IC50 in assay [1] came out at 2720 nM; in assay [2], 8620 nM.

On to `COc1cc2nc(C)nc(NC(C)c3ccc4c(c3)CCO4)c2cc1OC` (centres unmarked) [Example 24, N-[1-(2,3-dihydro-1-benzofuran-5-yl)ethyl]-6,7-dimethoxy-2-methylquinazolin-4-amine], for which the IC50 in assay [1] turned out to be 701 nM; in assay [2], 2450 nM.

Turning to `COc1cc2nc(C)nc(NC(C)c3ccc4c(c3)CCCC4)c2cc1OC` (centres unmarked) [Example 25, 6,7-dimethoxy-2-methyl-N-[1-(5,6,7,8-tetrahydronaphthalen-2-yl)ethyl]quinazolin-4-amine], the figures for the IC50 in assay [1] and in assay [2] were 541 nM and 1500 nM, respectively.

As to `COc1cc2nc(C)nc(NC(C)c3c(C)nc4ccccn34)c2cc1OC` (centres unmarked) [Example 26, 6,7-dimethoxy-2-methyl-N-[1-(2-methylimidazo[1,2-a]pyridin-3-yl)ethyl]quinazolin-4-amine], the half-maximal inhibitory concentration (IC50) in assay [1] worked out at 9550 nM; in assay [2], 6960 nM.

`COc1cc2nc(C)nc(NC(C)c3csc4ccccc34)c2cc1OC` (centres unmarked) [Example 27, N-[1-(1-benzothiophen-3-yl)ethyl]-6,7-dimethoxy-2-methylquinazolin-4-amine]: the IC50 worked out at 368 nM in assay [1] and 498 nM in assay [2].

`Cc1nc(N[C@H](C)c2ccccc2)c2cc(N=S(C)(C)=O)ccc2n1` [Example 30, 6-{[dimethyl(oxido)-lambda6-sulfanylidene]amino}-2-methyl-N-[(1R)-1-phenylethyl]quinazolin-4-amine]: the IC50 in assay [1] is 1340 nM; in assay [2], 2910 nM.

In the case of `Cc1nc(N[C@H](C)c2ccc(F)cc2)c2cc(N=S(C)(C)=O)ccc2n1` [Example 32, 6-{[dimethyl(oxido)-lambda6-sulfanylidene]amino}-N-[(1R)-1-(4-fluorophenyl)ethyl]-2-methylquinazolin-4-amine], the IC50 in assay [1] came to 1070 nM; in assay [2], 2590 nM.

On to `COc1cc2nc(C)nc(NC(C)c3ccc4c(c3)NC(=O)CO4)c2cc1OC` (centres unmarked) [Example 34, 6-{1-[(6,7-dimethoxy-2-methylquinazolin-4-yl)amino]ethyl}-2H-1,4-benzoxazin-3(4H)-one], for which the IC50 amounted to 4230 nM in assay [1] and 16800 nM in assay [2].

`COc1ccc2cc(C(C)Nc3nc(C)nc4cc(OC)c(OC)cc34)ccc2c1` (centres unmarked) [Example 35, 6,7-dimethoxy-N-[1-(6-methoxy-2-naphthyl)ethyl]-2-methylquinazolin-4-amine]: in assay [1], the concentration for half-maximal inhibition (IC50) amounted to 4720 nM. The inhibition (commonly how much of the control response was suppressed) at 20 µM in assay [2] (read-out: Assay 3 (KRAS-Activation by SOS no GTP) activity expressed as % inhibition at 20 μM, at 20 μM) was 48%.

With `COc1cc2nc(C)nc(N[C@H](C)c3cccc(-c4ccc(O)nc4)c3)c2cc1OC` [Example 68, 5-(3-{(1R)-1-[(6,7-dimethoxy-2-methylquinazolin-4-yl)amino]ethyl}phenyl)pyridin-2-ol], the IC50 worked out at 137 nM in assay [1] and 471 nM in assay [2].

Turning to `COc1cc2nc(C)nc(N[C@H](C)c3cccc(-n4cccn4)c3)c2cc1OC` [Example 341, 6,7-dimethoxy-2-methyl-N-{(1R)-1-[3-(1H-pyrazol-1-yl)phenyl]ethyl}quinazolin-4-amine], the IC50 is 2830 nM in assay [1] and 12200 nM in assay [2].

As to `COc1cc2nc(C)nc(N[C@H](C)c3cccc(Br)c3)c2cc1OCc1ccccc1` [Example 343, 6-(benzyloxy)-N-[(1R)-1-(3-bromophenyl)ethyl]-7-methoxy-2-methylquinazolin-4-amine], the 50% inhibitory concentration (IC50) in assay [1] was 1680 nM; in assay [2] it was 4330 nM.

With `COc1cc2nc(C)nc(N[C@H](C)c3cccc(-c4cn[nH]c4)c3)c2cc1OCc1ccccc1` [Example 344, 6-(benzyloxy)-7-methoxy-2-methyl-N-{(1R)-1-[3-(1H-pyrazol-4-yl)phenyl]ethyl}-quinazolin-4-amine], the half-inhibitory concentration (IC50) in assay [1] came out at 931 nM; in assay [2] it was 1860 nM.

For the compound `COc1cc2nc(C)nc(N[C@H](C)c3cccc(-c4cn[nH]c4)c3)c2cc1O` [Example 345, 7-methoxy-2-methyl-4-({(1R)-1-[3-(1H-pyrazol-4-yl)phenyl]ethyl}amino)quinazolin-6-ol], the IC50 was 14600 nM in assay [1] and 29400 nM in assay [2].

`COc1cc2nc(C)nc(N[C@H](C)c3cccc(-c4cn[nH]c4)c3)c2cc1OCC1CC1` [Example 346, 6-(cyclopropylmethoxy)-7-methoxy-2-methyl-N-{(1R)-1-[3-(1H-pyrazol-4-yl)phenyl]ethyl}quinazolin-4-amine]: the IC50 amounted to 342 nM in assay [1] and 576 nM in assay [2].

For `COCCOc1cc2c(N[C@H](C)c3cccc(-c4cn[nH]c4)c3)nc(C)nc2cc1OC` [Example 348, 7-methoxy-6-(2-methoxyethoxy)-2-methyl-N-{(1R)-1-[3-(1H-pyrazol-4-yl)phenyl]-ethyl}quinazolin-4-amine], the half-maximal inhibitory concentration (IC50) turned out to be 693 nM in assay [1] and 753 nM in assay [2].

`CC[C@@H](O)c1ccccc1-c1ccc(C(C)Nc2nc(C)nc3cc(OC)c(OC)cc23)s1` (stereo partly drawn) [Example 349, (1R)-1-[2-(5-{1-[(6,7-dimethoxy-2-methylquinazolin-4-yl)amino]ethyl}thiophen-2-yl)phenyl]propan-1-ol]: the IC50 in assay [1] came out at 231 nM; in assay [2], 740 nM.

For `CCCCOc1cc2c(N[C@H](C)c3cccc(-c4cn[nH]c4)c3)nc(C)nc2cc1OC` [Example 350, 6-butoxy-7-methoxy-2-methyl-N-{(1R)-1-[3-(1H-pyrazol-4-yl)phenyl]ethyl}quinazolin-4-amine], the 50% inhibitory concentration (IC50) in assay [1] amounted to 688 nM; in assay [2], 850 nM.

In the case of `COc1cc2nc(C)nc(N[C@H](C)c3cccc(-c4cn[nH]c4)c3)c2cc1OCCC(C)C` [Example 351, 7-methoxy-2-methyl-6-(3-methylbutoxy)-N-{(1R)-1-[3-(1H-pyrazol-4-yl)phenyl]ethyl}quinazolin-4-amine], the 50% inhibitory concentration (IC50) in assay [1] was 1710 nM; in assay [2] it was 1310 nM.

As to `COc1cc2nc(C)nc(NC(C)c3ccc(-c4ccccc4CCNC(=O)OC(C)(C)C)s3)c2cc1OC` (centres unmarked) [Example 352, tert-butyl {2-[2-(5-{1-[(6,7-dimethoxy-2-methylquinazolin-4-yl)amino]ethyl}thiophen-2-yl)phenyl]ethyl}carbamate], the results for the IC50 in assay [1] and in assay [2] were 16000 nM and 18200 nM, respectively.

Take `COc1cc2nc(C)nc(N[C@H](C)c3cccc(-c4cn[nH]c4)c3)c2cc1OC(C)C` [Example 353, 7-methoxy-2-methyl-6-(propan-2-yloxy)-N-{(1R)-1-[3-(1H-pyrazol-4-yl)phenyl]ethyl}quinazolin-4-amine]: the IC50 in assay [1] worked out at 360 nM; in assay [2], 453 nM.

For the compound `COc1cc2nc(C)nc(N[C@H](C)c3cccc(-c4cn[nH]c4)c3)c2cc1OCC1COC1` [Example 354, 7-methoxy-2-methyl-6-(oxetan-3-ylmethoxy)-N-{(1R)-1-[3-(1H-pyrazol-4-yl)phenyl]ethyl}quinazolin-4-amine], the figures for the concentration for half-maximal inhibition (IC50) in assay [1] and in assay [2] were 313 nM and 677 nM, respectively.

Turning to `CCOc1cc2c(N[C@H](C)c3cccc(-c4cn[nH]c4)c3)nc(C)nc2cc1OC` [Example 355, 6-Ethoxy-7-methoxy-2-methyl-N-{(1R)-1-[3-(1H-pyrazol-4-yl)phenyl]ethyl}-quinazolin-4-amine], the IC50 in assay [1] was 485 nM; in assay [2], 714 nM.

On to `CCOc1cc2c(N[C@H](C)c3cccc(-c4cnn(CC)c4)c3)nc(C)nc2cc1OC` [Example 356, 6-ethoxy-N-{(1R)-1-[3-(1-ethyl-1H-pyrazol-4-yl)phenyl]ethyl}-7-methoxy-2-methylquinazolin-4-amine], for which the figures for the IC50 in assay [1] and in assay [2] were 655 nM and 933 nM, respectively.

Take `COc1cc2nc(C)nc(NC(C)c3ccc(-c4ccccc4-c4cn[nH]c4)s3)c2cc1OC` (centres unmarked) [Example 361, 6,7-dimethoxy-2-methyl-N-[1-{5-[2-(1H-pyrazol-4-yl)phenyl]thiophen-2-yl}ethyl]-quinazolin-4-amine]: the IC50 in assay [1] stood at 2460 nM; in assay [2] it was 8600 nM.

Turning to `Cc1nc(N[C@H](C)c2cccc(Cl)c2)c2cc(Br)ccc2n1` [Example 363, 6-bromo-N-[(1R)-1-(3-chlorophenyl)ethyl]-2-methylquinazolin-4-amine], the IC50 in assay [1] worked out at 12400 nM; in assay [2], 17200 nM.
